Results from ChEMBL document CHEMBL5375983, “Discovery of YSR734: A Covalent HDAC Inhibitor with Cellular Activity in Acute Myeloid Leukemia and Duchenne Muscular Dystrophy” (J Med Chem, 2023).
Calls of active or inactive are those of the source. The rule behind the calls is not given here.

What was measured:
Histone deacetylase 5 = Histone deacetylase 5 (Homo sapiens, UniProt Q9UQL6); test: Inhibition of HDAC5 (unknown origin) using 6-carboxyfluorescein peptide as substrate preincubated with compound for 6 hrs followed by substrate addition by electrophoretic mobility shift assay
[1] = target: T1, Polyamine deacetylase HDAC10 (Homo sapiens, UniProt Q969S8); test: Inhibition of HDAC10 (unknown origin) using 6-carboxyfluorescein peptide as substrate preincubated with compound for 6 hrs followed by substrate addition by electrophoretic mobility shift assay
T1 sequence (Q969S8 whole entry): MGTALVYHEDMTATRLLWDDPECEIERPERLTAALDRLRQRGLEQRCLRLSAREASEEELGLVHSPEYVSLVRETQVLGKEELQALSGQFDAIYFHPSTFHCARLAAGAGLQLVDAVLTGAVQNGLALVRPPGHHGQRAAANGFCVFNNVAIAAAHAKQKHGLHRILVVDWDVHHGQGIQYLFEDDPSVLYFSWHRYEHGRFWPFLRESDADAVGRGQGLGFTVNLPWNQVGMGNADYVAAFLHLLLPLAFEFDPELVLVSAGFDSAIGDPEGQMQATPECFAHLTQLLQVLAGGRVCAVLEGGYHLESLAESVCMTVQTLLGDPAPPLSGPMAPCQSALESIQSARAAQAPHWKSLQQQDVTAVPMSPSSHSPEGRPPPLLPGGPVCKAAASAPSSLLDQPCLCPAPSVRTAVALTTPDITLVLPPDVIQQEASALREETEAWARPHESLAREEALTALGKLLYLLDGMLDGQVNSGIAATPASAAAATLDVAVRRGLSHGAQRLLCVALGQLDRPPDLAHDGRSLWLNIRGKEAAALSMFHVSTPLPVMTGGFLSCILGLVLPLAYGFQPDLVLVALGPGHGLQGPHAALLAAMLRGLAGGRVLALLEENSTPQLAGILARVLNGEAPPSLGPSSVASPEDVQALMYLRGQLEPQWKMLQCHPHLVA

Histone deacetylase 3 = Histone deacetylase 3 (Homo sapiens, UniProt O15379); test: Inhibition of full length recombinant human HDAC3 expressed in Sf9 cells using 6-carboxyfluorescein peptide as substrate preincubated with compound for 6 hrs followed by substrate addition and measured after 3 hrs by electrophoretic mobility shift assay; assay type: cell-based
Histone deacetylase 9 = Histone deacetylase 9 (Homo sapiens, UniProt Q9UKV0); test: Inhibition of HDAC9 (unknown origin) using 6-carboxyfluorescein peptide as substrate preincubated with compound for 6 hrs followed by substrate addition by electrophoretic mobility shift assay
Histone deacetylase 2 = Histone deacetylase 2 (Homo sapiens, UniProt Q92769); test: Binding affinity to recombinant full length HDAC2 catalytic domain Cys274 (unknown origin) assessed as formation of single covalent adduct at 50 uM incubated for 2 hrs by trypsin-digest protein mapping analysis
Histone deacetylase 7 = target: T2, Histone deacetylase 7 (Homo sapiens, UniProt Q8WUI4); test: Inhibition of HDAC7 (unknown origin) using 6-carboxyfluorescein peptide as substrate preincubated with compound for 6 hrs followed by substrate addition by electrophoretic mobility shift assay
T2 sequence (Q8WUI4 whole entry): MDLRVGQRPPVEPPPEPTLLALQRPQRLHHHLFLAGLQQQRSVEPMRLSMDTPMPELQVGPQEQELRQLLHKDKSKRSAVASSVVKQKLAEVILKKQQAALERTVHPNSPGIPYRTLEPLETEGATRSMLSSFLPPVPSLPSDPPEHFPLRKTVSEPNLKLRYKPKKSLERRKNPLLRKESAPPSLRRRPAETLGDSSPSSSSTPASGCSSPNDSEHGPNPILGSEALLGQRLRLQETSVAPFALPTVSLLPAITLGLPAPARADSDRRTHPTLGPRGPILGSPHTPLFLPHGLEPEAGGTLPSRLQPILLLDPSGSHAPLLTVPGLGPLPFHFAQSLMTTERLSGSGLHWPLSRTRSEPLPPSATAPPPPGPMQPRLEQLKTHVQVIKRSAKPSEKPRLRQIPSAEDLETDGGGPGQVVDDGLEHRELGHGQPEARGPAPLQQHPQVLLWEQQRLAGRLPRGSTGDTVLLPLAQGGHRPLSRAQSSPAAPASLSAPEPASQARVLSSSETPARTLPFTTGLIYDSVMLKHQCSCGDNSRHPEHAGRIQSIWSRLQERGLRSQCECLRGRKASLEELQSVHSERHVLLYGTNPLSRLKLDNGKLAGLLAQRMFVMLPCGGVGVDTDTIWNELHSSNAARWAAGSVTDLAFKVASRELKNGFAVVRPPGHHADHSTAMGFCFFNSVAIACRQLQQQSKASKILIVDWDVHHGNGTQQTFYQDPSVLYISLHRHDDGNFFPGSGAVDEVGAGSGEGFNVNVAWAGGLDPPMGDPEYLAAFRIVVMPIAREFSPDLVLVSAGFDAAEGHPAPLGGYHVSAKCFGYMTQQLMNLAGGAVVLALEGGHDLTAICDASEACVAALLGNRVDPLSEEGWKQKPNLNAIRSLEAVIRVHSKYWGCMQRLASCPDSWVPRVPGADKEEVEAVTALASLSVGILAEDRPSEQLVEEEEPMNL

MV4-11 = test: Induction of apoptosis in human MV4-11 cells assessed as late apoptotic cells at 1 uM measured after 6 hrs by annexin V-FITC/PI staining based FACS assay (reference value: 16.21%); assay type: functional

Sequence of Histone deacetylase 5 (Q9UQL6 whole entry): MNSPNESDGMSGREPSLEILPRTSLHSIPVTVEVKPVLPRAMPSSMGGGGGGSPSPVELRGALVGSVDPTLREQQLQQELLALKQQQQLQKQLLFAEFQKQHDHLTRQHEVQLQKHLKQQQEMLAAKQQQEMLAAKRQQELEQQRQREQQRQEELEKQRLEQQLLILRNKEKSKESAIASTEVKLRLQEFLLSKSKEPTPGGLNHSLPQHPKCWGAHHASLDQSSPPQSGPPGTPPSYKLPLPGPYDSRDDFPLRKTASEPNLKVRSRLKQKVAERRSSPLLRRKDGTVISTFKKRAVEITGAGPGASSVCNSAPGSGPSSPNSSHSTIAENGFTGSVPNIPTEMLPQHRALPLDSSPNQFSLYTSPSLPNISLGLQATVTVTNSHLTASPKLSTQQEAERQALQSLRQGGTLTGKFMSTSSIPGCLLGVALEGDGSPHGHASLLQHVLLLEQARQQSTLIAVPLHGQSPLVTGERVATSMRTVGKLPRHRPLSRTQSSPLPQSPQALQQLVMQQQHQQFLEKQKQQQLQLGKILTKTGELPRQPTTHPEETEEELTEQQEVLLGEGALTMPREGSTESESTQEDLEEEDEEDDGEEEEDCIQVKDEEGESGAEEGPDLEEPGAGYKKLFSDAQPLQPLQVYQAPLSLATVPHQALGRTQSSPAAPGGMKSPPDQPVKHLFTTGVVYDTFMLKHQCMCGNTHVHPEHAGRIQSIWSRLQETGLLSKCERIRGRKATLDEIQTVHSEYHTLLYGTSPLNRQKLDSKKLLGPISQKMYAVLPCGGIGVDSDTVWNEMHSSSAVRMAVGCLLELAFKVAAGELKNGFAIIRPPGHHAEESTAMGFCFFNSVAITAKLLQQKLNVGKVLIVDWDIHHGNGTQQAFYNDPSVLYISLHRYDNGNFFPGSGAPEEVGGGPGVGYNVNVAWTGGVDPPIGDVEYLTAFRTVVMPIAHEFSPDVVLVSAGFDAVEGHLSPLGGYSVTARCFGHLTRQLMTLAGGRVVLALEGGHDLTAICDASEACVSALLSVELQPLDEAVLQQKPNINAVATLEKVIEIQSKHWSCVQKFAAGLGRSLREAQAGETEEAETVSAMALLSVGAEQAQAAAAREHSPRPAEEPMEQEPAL
Sequence of Histone deacetylase 2 (Q92769 whole entry, the tested form may be a part): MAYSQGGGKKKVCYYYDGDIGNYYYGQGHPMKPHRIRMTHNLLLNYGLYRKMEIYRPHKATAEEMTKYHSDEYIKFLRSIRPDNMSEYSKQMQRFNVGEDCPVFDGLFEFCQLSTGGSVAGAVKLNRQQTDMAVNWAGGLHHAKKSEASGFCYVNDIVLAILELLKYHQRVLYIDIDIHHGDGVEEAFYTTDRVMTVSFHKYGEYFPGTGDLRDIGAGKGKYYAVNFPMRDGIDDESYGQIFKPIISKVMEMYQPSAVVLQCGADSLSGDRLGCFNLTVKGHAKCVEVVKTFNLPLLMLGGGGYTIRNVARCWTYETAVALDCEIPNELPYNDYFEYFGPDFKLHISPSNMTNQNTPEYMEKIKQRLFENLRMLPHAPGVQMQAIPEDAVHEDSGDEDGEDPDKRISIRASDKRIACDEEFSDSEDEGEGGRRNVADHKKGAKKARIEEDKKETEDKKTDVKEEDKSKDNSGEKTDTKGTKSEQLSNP
Sequence of Histone deacetylase 9 (Q9UKV0 whole entry, the tested form may be a part): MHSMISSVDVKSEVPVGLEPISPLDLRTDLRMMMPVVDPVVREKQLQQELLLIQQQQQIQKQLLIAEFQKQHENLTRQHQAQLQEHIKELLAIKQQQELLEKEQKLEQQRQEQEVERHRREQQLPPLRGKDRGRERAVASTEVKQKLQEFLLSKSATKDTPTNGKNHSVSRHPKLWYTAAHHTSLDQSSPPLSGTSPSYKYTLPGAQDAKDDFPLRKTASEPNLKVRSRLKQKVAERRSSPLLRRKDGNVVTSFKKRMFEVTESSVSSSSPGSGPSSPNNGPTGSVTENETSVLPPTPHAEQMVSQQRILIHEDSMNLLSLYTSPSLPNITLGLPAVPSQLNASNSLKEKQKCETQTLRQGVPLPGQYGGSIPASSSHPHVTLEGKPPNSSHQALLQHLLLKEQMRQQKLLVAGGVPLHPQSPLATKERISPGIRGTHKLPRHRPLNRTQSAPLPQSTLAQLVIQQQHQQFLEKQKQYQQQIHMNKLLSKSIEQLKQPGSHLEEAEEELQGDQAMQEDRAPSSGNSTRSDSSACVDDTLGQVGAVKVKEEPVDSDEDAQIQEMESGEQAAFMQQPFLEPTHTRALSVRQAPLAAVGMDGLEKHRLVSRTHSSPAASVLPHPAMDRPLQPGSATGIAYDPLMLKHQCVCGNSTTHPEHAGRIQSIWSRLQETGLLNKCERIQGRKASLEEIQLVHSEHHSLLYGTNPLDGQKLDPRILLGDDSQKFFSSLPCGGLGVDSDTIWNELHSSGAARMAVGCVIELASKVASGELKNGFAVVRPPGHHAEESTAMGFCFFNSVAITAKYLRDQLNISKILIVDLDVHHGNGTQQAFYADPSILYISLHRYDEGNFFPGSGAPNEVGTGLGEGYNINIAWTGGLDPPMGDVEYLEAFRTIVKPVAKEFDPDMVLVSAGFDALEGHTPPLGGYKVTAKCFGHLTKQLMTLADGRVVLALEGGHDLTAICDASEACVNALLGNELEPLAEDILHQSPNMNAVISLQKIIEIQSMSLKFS
Sequence of Histone deacetylase 3 (O15379 whole entry): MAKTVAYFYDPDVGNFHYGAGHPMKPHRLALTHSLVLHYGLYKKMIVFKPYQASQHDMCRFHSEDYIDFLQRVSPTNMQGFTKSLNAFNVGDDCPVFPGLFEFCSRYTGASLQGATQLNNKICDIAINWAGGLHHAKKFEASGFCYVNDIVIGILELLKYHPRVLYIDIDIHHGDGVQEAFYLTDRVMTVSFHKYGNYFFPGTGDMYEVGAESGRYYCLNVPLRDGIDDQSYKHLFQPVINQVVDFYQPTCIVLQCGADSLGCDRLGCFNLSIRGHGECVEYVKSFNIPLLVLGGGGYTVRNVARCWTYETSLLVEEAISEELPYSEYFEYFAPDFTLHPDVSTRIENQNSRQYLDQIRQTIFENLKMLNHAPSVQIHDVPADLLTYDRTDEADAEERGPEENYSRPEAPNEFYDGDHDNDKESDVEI

IC50 (Histone deacetylase 5): > 10 µM | IC50 [1]: > 10 µM | IC50 (Histone deacetylase 3): 0.143 µM | IC50 (Histone deacetylase 9): > 10 µM | Activity (Histone deacetylase 2): Active | IC50 (Histone deacetylase 7): > 10 µM
Structure (SMILES): Nc1ccccc1NC(=O)c1ccc(CNC(=O)OC2CCN(S(=O)(=O)c3c(F)c(F)c(F)c(F)c3F)CC2)cc1
Activity (MV4-11): 48.31%
